Counter-ions that a name gives are not always drawn. Like-named read-outs stand apart in the source and are kept apart here.

Series [1] in a line: Thiopental in fresh human plasma with ethanol, equilibrated with coated activated charcoal (uv relative absorbance). The format is in vitro ADME. The protocol:
Thiopental was added to fresh human plasma at room temperature and allowed to equilibrate. Relative absorbances, proportional to free drug concentration, were measured spectrophotometrically (uv). Ethanol concentrations of 0, 0.4, 0.7, 1.0, and 1.4% v/v were tested. Drug/plasma and drug/plasma/ethanol solutions were equilibrated with coated activated charcoal.

Series [2] can be described thus: Free drug concentration of thiopental in fresh human plasma with ethanol (thin layer chromatography). The format is in vitro ADME. As to conditions: ethanol 0 to 1.0% v/v, room temperature. The method, then: Thiopental was added to fresh human plasma at room temperature and allowed to equilibrate. Thin layer chromatography, used as an indicator of free drug concentration, was compared to thiopental calibrated plates. Ethanol concentrations of 0, 0.1, 0.2, 0.3, 0.4, 0.5, 0.6, 0.7, 0.8 and 1.0% v/v were tested. A maximum free drug concentration occurred at and above 0.6% v/v.

Series [3] deals with human albumin. Kind of series: Free thiopental in human albumin solution with sodium lauryl sulfate (differential solution pH change). Format: in vitro ADME. Particulars: sodium lauryl sulfate 0, 2, 4, 6, 8, and 10 mg/ml; room temperature.
Description: Thiopental was added to a human albumin solution at room temperature and allowed to equilibrate. Differential solution pH changes, related to free drug concentration, were measured.
A short description of series [4]: Effectiveness as liberating agent for bilirubin (general statement). Format: in vitro ADME.
Excerpt: (§1) The term "liberating agent" as used herein defines a reagent which when added to a body fluid, increases the ratio of a free soluble chemical to the total content of that chemical in the body fluid. The total content is the aggregate of both the free soluble and bound states of the chemical. More than one physical mechanism can be encountered with the same resultant advantageous partitioning of the target chemical from the bound to the free soluble phase. […] In general, liberating agents as herein defined are useful in body fluids and in vivo.
Series [5] has as its system human albumin. The protocol: Imipramine HCl, an antidepressant, was added to a human albumin solution at room temperature and allowed to equilibrate. Differential solution pH changes, related to free drug concentration, were measured. Ethanol concentrations of 0, 0.2, 0.4, 0.6, 0.8 and 1.0% v/v were tested.
For series [6] the following is noted: less than two percent by volume (% v/v); barbiturates (thiopental, secobarbital, pentobarbital), tricyclics (imipramine, chlorpromazine).
Excerpt: as §1
Series [7] can be described thus: Effectiveness as liberating agent for thiopental (general statement). The format is in vitro ADME. Particulars: specific drugs such as thiopental.
Excerpt: as §1
Series [8] concerns human albumin. Nature of the series: Free chlorpromazine in human albumin solution with ethanol (differential solution pH change). Particulars: ethanol 0 to 1.0% v/v; room temperature. Format: in vitro ADME.
Description: Chlorpromazine HCl, a tranquilizer, was added to a human albumin solution at room temperature and allowed to equilibrate. Differential solution pH changes, related to free drug concentration, were measured.

For the compound `CCCC(C)C1(CC)C(=O)NC(=S)NC1=O` (centres unmarked) [Thiopental], the “adsorption of the drug by charcoal” value in series [1] (0 to 1.4% v/v ethanol) was “significant increased adsorption of the drug by charcoal”. In addition, the “change in relative absorbance” value in series [1] (from 0 to 1.4% v/v ethanol) was determined as 13%. Moreover, the “ethanol concentration at and above which maximum free drug concentration occurred” value in series [2] is given as no less than 0.6 % v/v. Moreover, in the series with human albumin [3], the “differential solution pH change” value is “continuous pH change” and the “free soluble drug concentration” value is on record as “increasing free soluble drug concentrations”.
As to `CC(=O)Oc1ccccc1C(=O)O` [acetylsalicylic acid], in series [4], the “specificity as liberating agent” value is on record as “specific for bilirubin”.
Turning to `CN(C)CCCN1c2ccccc2CCc2ccccc21` [Imipramine HCl], the “free soluble drug concentration (differential pH responses)” value with human albumin [5] was “significant increases in the free soluble drug concentration”.
As for `CCO` [ethanol], in series [6], the “effectiveness as liberating agent” value is “effective”.
`CCCCCCCCCCCC(=O)O` [lauric acid]: the “effectiveness as liberating agent” value in series [7] is reported as “effective”.
On the same count and under the same terms, next, `CCCCCCCCCCCCS(=O)(=O)[O-].[Na+]` [sodium lauryl sulfonate]: “effective”.
Turning to `CN(C)CCCN1c2ccccc2Sc2ccc(Cl)cc21` [Chlorpromazine HCl], the “free soluble concentration of the drug” value with human albumin [8] is given as “increases in free soluble concentration”.

Source of the values: patent publication US4401430A, “Method of and apparatus for detoxifying mammalian hosts” (priority 1981, dated 1983).
